In US9062124B2, “GIP-based mixed agonists for treatment of metabolic disorders and obesity” (priority 2008, dated 2015):
Bridges are numbered along the chain shown (N, C = ends). Where no end group is shown, it is not given here. [ ]: non-standard residue; d: D form. PEG 40 kDa = PEG (40 kDa) covalently attached to Cys; Aib = CC(C)(N)C(=O)O

Experiments:
[1] = Glucose tolerance test (1-hour and 24-hour GTT) in DIO mice; format: in vivo; settings: Example 26; for potency in GTT compared with GLP-1 agonist control peptide: 1 or 3 nmol/kg/week versus control at 10 nmol/kg/week; for blood glucose levels in 1-hour and 24-hour GTT: DIO mice, intraperitoneal, 1, 3 or 10 nmol/kg/week, versus vehicle control
Protocol: A 1-hour glucose tolerance test (GTT) was performed on the mice by intraperitoneally injecting a 25% (w/v) glucose saline solution into the mice one hour after injection with one of the peptides or vehicle control. The glucose saline solution was administered to the mice at a dose of 1.5 g per kg of mouse body weight. Blood glucose levels were measured at the time of injection of peptide or vehicle control (−60 min), at the time of glucose saline solution injection (0 min), or at 15, 30, 60, or 120 min post injection with the glucose saline solution.
A 24-hour GTT also was performed on the mice in the same manner as the 1-hour GTT, except that the glucose saline solution was administered to the mice 24 hours after injection with the peptide or vehicle control. The results of the 24-hour GTT are showri in FIG. 8.

[2] = Body weight of mice after peptide injection; settings: for % change in body weight: Example 26, intraperitoneal, 3 or 10 nmol/kg/week, up to Day 7; for total change in body weight: subcutaneous, Day 7
[3] = Blood glucose levels of mice after peptide injection; settings: subcutaneous; for blood glucose levels: Example 28, DIO mice, 10 nmol/kg, Day 0 versus Day 7
[4] = system: glucagon receptor, GLP-1 receptor or GIP receptor; experiment: Agonist profile across receptors assigned from the cAMP reporter assay data; format: cell-based; settings: assigned from the in vitro EC50 data of Tables 1-4

Row | Substance | potency in GTT compared with GLP-1 agonist control peptide [1] | blood glucose levels in 1-hour and 24-hour GTT [1] | % change in body weight ([2]; DIO mice) | total change in body weight ([2]; Example 27, mice, 10 or 35 nmol/kg/week) | total change in blood glucose ([3]; Example 27, mice, 10 or 35 nmol/kg/week, Day 7) | blood glucose levels [3] | receptor activity profile (glucagon / GLP-1 / GIP agonism) [4] | reduction of body weight ([2]; Example 22, DIO mice, subcutaneous QW, 70 or 210 nmol/kg/week) | total change in body weight ([2]; Example 28, DIO mice, 10 nmol/kg)
1 | mt-274: pegylated, linear peptide lacking a lactam, Glu at position 3, PEG on C-terminal Cys at position 40 (Y[Aib]EGTFTSDYSIYLDKQAA[Aib]EFVNWLLAGGPSSGAPPPSC(PEG 40 kDa)-NH2) | appeared to have the highest potency | exhibited decreased levels of blood glucose | lost weight to the same or greater extent of mice injected with the GLP-agonist control peptide | most dramatic changes in body weight | most dramatic changes in blood glucose | decreased |  |  | 
2 | mt-178: pegylated, cyclic, lactam-containing GIP-active glucagon analog; GLP-1/GIP co-agonist peptide (Y[Aib]EGTFTSDYSIYLDEQAAKEFVNWLLAGGPSSGAPPPSC(PEG 40 kDa)-NH2; lactam 16-20) | greater than that of the GLP-1 agonist control peptide | exhibited decreased levels of blood glucose | lost weight to the same or greater extent of mice injected with the GLP-agonist control peptide |  |  | decreased | exemplary GLP-1/GIP co-agonist peptides | a little more effective at reducing body weight in the mice as Chimera 2 AIB2, but not as effective as Chimera 2 AIB2 lactam | greatest loss of body weight 7 days after injection
